± gives the standard deviation.
What was measured:
[1] = chemical recovery into PDMS from spiked human plasma; higher = better extraction; settings: pooled human plasma, extraction method: PES with PDMS
[2] = chemical recovery from spiked human plasma; higher = better extraction; settings: pooled human plasma
[3] = chemical recovery by SPE of plasma after PDMS sampling; higher = better extraction; settings: pooled human plasma, extraction method: HLB SPE of plasma after PES
[4] = extraction method: PES+SPE (3 d PDMS equilibration then HLB SPE)
[5] = extraction method: SPE only (HLB 96-well)
[6] = extraction method: solvent precipitation (ACN + hexane)
[7] = extraction method: SPE only (HLB 96-well), PES comparison experiment
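Throughout, for chemical recovery by SPE of plasma after PDMS sampling: over 400 spiked chemicals quantified by LC-HRMS or GC-HRMS via internal standard calibration, recovery relative to spike mix added to unspiked plasma extract to correct matrix effects.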

| SMILES | chemical recovery into PDMS ([1]; equilibration time (d): 6) | chemical recovery [2, 4] | chemical recovery [2, 5] | chemical recovery [2, 6] | chemical recovery into PDMS ([1]; equilibration time (d): 3) | chemical recovery [2, 7] | chemical recovery into PDMS ([1]; equilibration time (d): 1) | chemical recovery by SPE of plasma ([3]; equilibration time (d): 1) | chemical recovery by SPE of plasma ([3]; equilibration time (d): 3) | chemical recovery by SPE of plasma ([3]; equilibration time (d): 6) |
| --- | --- | --- | --- | --- | --- | --- | --- | --- | --- | --- |
| CN(C)C(=N)NC(=N)N [Metformin] | 0.002 ± 0.0035% | 1.5 ± 0.32% | 2.12 ± 0.71% | 83.3 ± 12% |  |  |  |  |  |  |
| Cl[C@H]1[C@H](Cl)[C@@H](Cl)[C@H](Cl)[C@@H](Cl)[C@@H]1Cl [beta-HCH] | 77.1 ± 5.9% | 192 ± 11% |  | 33.3 ± 5.6% | 80.5 ± 10% | 26.6 ± 2.1% |  |  |  |  |
| c1ccc2cc3ccccc3cc2c1 [Anthracene] | 80.6 ± 8% |  |  |  | 79.7 ± 8.8% | 17.7 ± 2.9% | 70 ± 4.1% |  |  |  |
| CC(C1CC1)C(O)(Cn1cncn1)c1ccc(Cl)cc1 (configuration not stated) [Cyproconazole] | 41 ± 0.84% |  |  |  | 41.6 ± 3.6% |  | 37.7 ± 1.8% | 2.91 ± 0.36% | 2.32 ± 0.46% | 1.25 ± 0.088% |
| CCCCCCCCCCN(C)C [N,N-Dimethyldecylamine] | 0.000993 ± 0.0017% |  |  |  |  | 39.4 ± 7.1% |  |  |  |  |
| C=CC[C@@H]1/C=C(\C)C[C@H](C)C[C@H](OC)[C@H]2O[C@@](O)(C(=O)C(=O)N3CCCC[C@H]3C(=O)O[C@H](/C(C)=C/[C@@H]3CC[C@@H](O)[C@H](OC)C3)[C@H](C)[C@@H](O)CC1=O)[C@H](C)C[C@@H]2OC [Tacrolimus] | 30.5 ± 2.2% |  |  |  | 27.6 ± 2.7% |  | 23.3 ± 2.5% | 5.46 ± 2.7% | 1.87 ± 3.2% |  |
| CCCCCCCCn1sc(Cl)c(Cl)c1=O [DCOIT] | 5.33 ± 4.6% |  | 27.3 ± 3.7% |  | 3.03 ± 5.2% |  | 25.7 ± 3.8% |  |  |  |
| ClC1=C(Cl)C2(Cl)C3C4OC4C(Cl)C3C1(Cl)C2(Cl)Cl (configuration not stated) [Heptachlorepoxide] |  |  |  |  | 99.4 ± 13% |  |  | 1.72 ± 1.8% | 2.34 ± 0.82% | 1.89 ± 0.21% |
| CC(=O)O[C@]1(C(C)=O)CC[C@H]2[C@@H]3C[C@H](C)C4=CC(=O)CC[C@]4(C)[C@H]3CC[C@@]21C [Medroxyprogesteroneacetate] | 43.4 ± 1.5% |  |  |  | 46.8 ± 1.9% | 44.5 ± 8.6% | 41.5 ± 4.3% |  |  |  |
| CC(=O)C1(C)CC2=C(CCCC2(C)C)CC1C (configuration not stated) [ISO E Super] | 42.6 ± 7% |  | 2.41 ± 2.6% |  | 34.9 ± 2.3% |  | 33.8 ± 6.6% |  |  |  |
| Cc1ccc(OP(=O)(Oc2ccc(C)cc2)Oc2ccc(C)cc2)cc1 [Tricresylphosphate] | 54 ± 3.2% |  | 44.8 ± 12% |  | 56.1 ± 5.2% | 25.4 ± 4.9% | 54.2 ± 6.3% |  |  |  |
| CC(=O)[C@@]1(O)CC[C@H]2[C@@H]3CCC4=CC(=O)CC[C@]4(C)[C@H]3CC[C@@]21C [17alpha-Hydroxyprogesterone] | 13.1 ± 1.1% |  |  |  | 12.2 ± 1.3% | 51.1 ± 7.7% | 7.94 ± 0.8% |  |  |  |
| CC(C)COP(=O)(OCC(C)C)OCC(C)C [Tri-isobutylphosphate] | 39.9 ± 2.7% |  |  |  | 39.9 ± 4.4% | 31.3 ± 5.5% | 37.6 ± 1.3% |  |  |  |
| CO/N=C(/C1=NOCCO1)c1ccccc1Oc1ncnc(Oc2ccccc2Cl)c1F [Fluoxastrobin] | 47.2 ± 5.7% |  |  |  | 50.3 ± 4.7% |  | 45.4 ± 3.9% | 0.73 ± 1.3% | 0.629 ± 1.1% | 0.277 ± 0.48% |
| COC(=O)N(C(=O)N1CO[C@@]2(C(=O)OC)Cc3cc(Cl)ccc3C2=N1)c1ccc(OC(F)(F)F)cc1 [Indoxacarb] | 53.2 ± 3.8% |  | 61.3 ± 15% |  | 52 ± 9.1% | 38.3 ± 8.6% | 52.6 ± 5.8% |  |  |  |
| CC(=O)c1cc(C(C)(C)C)cc2c1CCC2(C)C [Celestolide] | 34.7 ± 3.6% |  | 1.5 ± 0.73% | 76.6 ± 27% | 37.6 ± 3.8% |  | 33.2 ± 0.97% |  |  |  |
| CCOC(=O)c1cn2nc(OP(=S)(OCC)OCC)cc2nc1C [Pyrazophos] | 40.1 ± 2.1% | 55.7 ± 7.8% | 43 ± 3.4% |  | 40.5 ± 2.3% | 40.2 ± 7.4% | 39.1 ± 4.4% |  |  |  |

— the supplement of paper PMC10702517
